{"source": "ChEMBL document CHEMBL1126968", "about": "“Synthesis and biological evaluation of some 25,26-epoxy-1,24-dihydroxyvitamin D3 analogues” (1993)", "key": {"HL-60": {"system": "HL-60", "experiment": "Percent activity for its capability to induce differentiation of human promyeloid leukemia HL-60 cells", "assay_type": "functional", "parameters": "concentration or dose not given beside the values"}, "[1]": {"target": "T1, Vitamin D3 receptor (Sus scrofa) (UniProt A3RGC1)", "T1 sequence (whole entry)": "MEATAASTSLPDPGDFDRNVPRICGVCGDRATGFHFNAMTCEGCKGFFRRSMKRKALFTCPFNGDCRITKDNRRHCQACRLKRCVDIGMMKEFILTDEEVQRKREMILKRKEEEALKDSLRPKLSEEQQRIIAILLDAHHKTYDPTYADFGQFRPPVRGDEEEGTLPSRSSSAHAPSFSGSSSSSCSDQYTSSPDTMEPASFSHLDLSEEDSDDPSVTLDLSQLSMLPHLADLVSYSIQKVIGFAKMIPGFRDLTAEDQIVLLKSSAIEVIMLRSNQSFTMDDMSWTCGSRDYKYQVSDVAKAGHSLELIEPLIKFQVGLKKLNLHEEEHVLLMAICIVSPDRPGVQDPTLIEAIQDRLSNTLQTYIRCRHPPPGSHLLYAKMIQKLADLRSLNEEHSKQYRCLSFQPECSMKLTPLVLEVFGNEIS", "experiment": "Inhibition of [3H]1-alpha,25-dihydroxy-vitamin D3 binding to porcine intestinal mucosal vitamin D receptor"}}}
{"smiles": "C=C1/C(=C\\C=C2/CCC[C@]3(C)[C@@H]([C@H](C)CC[C@@H](O)[C@]4(C)CO4)CC[C@@H]23)C[C@@H](O)C[C@@H]1O", "values": [{"measurement": "Activity", "setting": "HL-60", "result": 33, "unit": "%"}, {"measurement": "Receptor binding", "setting": "[1]", "result": 9}]}
{"smiles": "C=C1/C(=C\\C=C2/CCC[C@]3(C)[C@@H]([C@H](C)CC[C@@H](O)[C@@]4(C)CO4)CC[C@@H]23)C[C@@H](O)C[C@@H]1O", "values": [{"measurement": "Activity", "setting": "HL-60", "result": 12, "unit": "%"}, {"measurement": "Receptor binding", "setting": "[1]", "result": 20}]}
{"smiles": "C=C1/C(=C\\C=C2/CCC[C@]3(C)[C@@H]([C@H](C)/C=C/[C@@H](O)[C@@]4(C)CO4)CC[C@@H]23)C[C@@H](O)C[C@@H]1O", "values": [{"measurement": "Activity", "setting": "HL-60", "result": 30, "unit": "%"}, {"measurement": "Receptor binding", "setting": "[1]", "result": 8}]}
{"smiles": "C=C1/C(=C\\C=C2/CCC[C@]3(C)[C@@H]([C@H](C)/C=C/[C@H](O)[C@]4(C)CO4)CC[C@@H]23)C[C@@H](O)C[C@@H]1O", "values": [{"measurement": "Activity", "setting": "HL-60", "result": 30, "unit": "%"}, {"measurement": "Receptor binding", "setting": "[1]", "result": 8}]}
{"smiles": "C=C1/C(=C\\C=C2/CCC[C@]3(C)[C@@H]([C@H](C)CCCC4(C)CO4)CC[C@@H]23)C[C@@H](O)C[C@@H]1O", "note": "(some centres undefined)", "values": [{"measurement": "Activity", "setting": "HL-60", "result": 37, "unit": "%"}, {"measurement": "Receptor binding", "setting": "[1]", "result": 27}]}
{"smiles": "C=C1/C(=C\\C=C2/CCC[C@]3(C)[C@@H]([C@H](C)CC[C@H](O)[C@]4(C)CO4)CC[C@@H]23)C[C@@H](O)C[C@@H]1O", "values": [{"measurement": "Activity", "setting": "HL-60", "result": 7, "unit": "%"}, {"measurement": "Receptor binding", "setting": "[1]", "result": 5}]}
{"smiles": "C=C1/C(=C\\C=C2/CCC[C@]3(C)[C@@H]([C@H](C)CC[C@H](O)[C@@]4(C)CO4)CC[C@@H]23)C[C@@H](O)C[C@@H]1O", "values": [{"measurement": "Activity", "setting": "HL-60", "result": 44, "unit": "%"}, {"measurement": "Receptor binding", "setting": "[1]", "result": 1}]}
